Experiments:
MDM2:MDMX heterodimer = target: T1, MDM2:MDMX heterodimer (Homo sapiens, UniProt Q00987); assay: Proximity ligation assay, endogenous FL-MDM2 and MDMX in A549; format: cell-based; settings: A549 (TP53 WT), 10% FBS
T1 construct: PLA of endogenous FL-MDM2 and MDMX in A549; endogenous in cells; host or cells: A549

HCT116 TP53 null cells = assay: Cell viability (CellTiter Glo 2.0); format: cell-based, human; settings: 24 h, 2% FBS
Protocol: Immunocytochemistry. HCT116 TP53 null cells were seeded at 0.5 x 10^5 cells per well of a 12-well plate containing a sterilised 0.13-0.17mm glass coverslip in complete DMEM and incubated overnight. Cells were fixed in 4% paraformaldehyde (Sigma) for 15 minutes at room temperature, then permeabilised with 0.1% triton X100 (Sigma) for 4 minutes at room temperature. Cells were then blocked in 10% donkey serum, 1% BSA in PBS for 1 Hr at room temperature. Following blocking, cells were co-incubated in MDM2 (mouse) and MDMX (rabbit) primary antibodies overnight at 4 °C. Subsequently, secondary Alexa Fluor antibodies were co-incubated for a further 1 Hr at room temperature. […]
RTCA xCELLigence. Real-time cellular analysis (RTCA) of A549 cells was measured utilising the label-free cellular growth xCELLigence platform (Roche Applied Science, Agilent Technologies), where-by cellular impedance was leveraged as an indirect indicator of relative cell growth (i.e., cell index; CI). […] Relative growth (Δ growth) of treated A549 cells was assessed as a % difference of vehicle after 72 Hrs post-treatment (i.e., 100% relative cell growth at experiment endpoint).
Cell Viability. For MOLM-13, THP-1 (Fig. 3A), HCT116 TP53 wild-type, HCT116 TP53 null (Fig. 3D), HEK293, and IMR-90 (Fig. 3E) cells, relative cell viability was assessed via CellTiter Glo 2.0 Cell Viability Assay (Promega: […]

T1 sequence (Q00987 whole entry, one chain of several): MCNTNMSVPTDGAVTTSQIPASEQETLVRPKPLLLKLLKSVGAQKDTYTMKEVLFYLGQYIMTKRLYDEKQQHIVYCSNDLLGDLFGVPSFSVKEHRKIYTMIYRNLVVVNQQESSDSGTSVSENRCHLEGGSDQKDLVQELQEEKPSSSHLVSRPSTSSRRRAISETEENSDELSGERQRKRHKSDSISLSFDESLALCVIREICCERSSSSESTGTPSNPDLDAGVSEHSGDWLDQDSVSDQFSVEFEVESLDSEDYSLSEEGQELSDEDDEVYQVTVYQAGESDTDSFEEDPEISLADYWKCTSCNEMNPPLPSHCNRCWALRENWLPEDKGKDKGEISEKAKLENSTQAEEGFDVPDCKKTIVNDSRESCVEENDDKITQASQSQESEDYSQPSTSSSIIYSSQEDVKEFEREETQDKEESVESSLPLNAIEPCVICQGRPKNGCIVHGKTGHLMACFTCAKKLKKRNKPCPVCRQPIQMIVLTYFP

Endogenous MDM2 heterodimerization, PLA (MDM2:MDMX heterodimer): did not affect MDM2 heterodimerization
SMILES: COc1cc(C(=O)O)ccc1NC(=O)[C@@H]1N[C@@H](CC(C)(C)C)[C@](C#N)(c2ccc(Cl)cc2F)[C@H]1c1cccc(Cl)c1F [Idasanutlin]
Relative cell viability / anti-proliferative activity (in words) (HCT116 TP53 null cells): no anti-proliferative activity

From paper PMC12395054, “Targeting MDM2 homodimer and heterodimer disruption with DRx-098D in TP53 wild-type and mutant cancer cells” (Molecular Therapy Oncology, 2025)
